According to article PMC11027099 (ACS Chemical Neuroscience, 2024):
pEC50: −log10 of the molar value. Where two headings read alike, the source gives them in different places.

How the values were obtained:
[1] = target: T1, cone CNG channel (CNGA3/CNGB3) (Homo sapiens, UniProt Q16281+Q9NQW8); experiment: inside-out patch clamp, Xenopus oocytes, Hill fit; format: cell-based
T1 construct: heterotetramer 3 CNGA3 : 1 CNGB3; subunits in pGEMHE, cRNA ratio 1:2.5, expressed in Xenopus laevis oocytes; inside-out patches
T1 sequence (Q16281 1-694): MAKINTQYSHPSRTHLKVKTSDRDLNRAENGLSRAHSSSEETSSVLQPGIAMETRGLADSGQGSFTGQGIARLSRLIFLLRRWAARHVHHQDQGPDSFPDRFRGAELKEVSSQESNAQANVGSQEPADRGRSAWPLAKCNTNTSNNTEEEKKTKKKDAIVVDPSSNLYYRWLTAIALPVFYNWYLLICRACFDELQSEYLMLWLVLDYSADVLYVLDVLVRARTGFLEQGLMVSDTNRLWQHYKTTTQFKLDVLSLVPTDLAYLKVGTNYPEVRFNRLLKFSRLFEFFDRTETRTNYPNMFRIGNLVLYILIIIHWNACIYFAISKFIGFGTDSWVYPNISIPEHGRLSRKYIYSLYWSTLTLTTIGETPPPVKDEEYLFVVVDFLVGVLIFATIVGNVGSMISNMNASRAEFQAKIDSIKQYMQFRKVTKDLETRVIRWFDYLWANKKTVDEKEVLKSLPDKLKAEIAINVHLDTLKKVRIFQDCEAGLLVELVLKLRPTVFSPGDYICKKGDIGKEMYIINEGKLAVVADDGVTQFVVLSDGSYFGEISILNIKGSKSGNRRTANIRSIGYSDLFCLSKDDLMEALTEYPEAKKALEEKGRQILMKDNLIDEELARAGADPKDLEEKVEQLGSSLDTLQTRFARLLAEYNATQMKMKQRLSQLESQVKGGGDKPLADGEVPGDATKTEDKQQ
T1 sequence (Q9NQW8 1-809): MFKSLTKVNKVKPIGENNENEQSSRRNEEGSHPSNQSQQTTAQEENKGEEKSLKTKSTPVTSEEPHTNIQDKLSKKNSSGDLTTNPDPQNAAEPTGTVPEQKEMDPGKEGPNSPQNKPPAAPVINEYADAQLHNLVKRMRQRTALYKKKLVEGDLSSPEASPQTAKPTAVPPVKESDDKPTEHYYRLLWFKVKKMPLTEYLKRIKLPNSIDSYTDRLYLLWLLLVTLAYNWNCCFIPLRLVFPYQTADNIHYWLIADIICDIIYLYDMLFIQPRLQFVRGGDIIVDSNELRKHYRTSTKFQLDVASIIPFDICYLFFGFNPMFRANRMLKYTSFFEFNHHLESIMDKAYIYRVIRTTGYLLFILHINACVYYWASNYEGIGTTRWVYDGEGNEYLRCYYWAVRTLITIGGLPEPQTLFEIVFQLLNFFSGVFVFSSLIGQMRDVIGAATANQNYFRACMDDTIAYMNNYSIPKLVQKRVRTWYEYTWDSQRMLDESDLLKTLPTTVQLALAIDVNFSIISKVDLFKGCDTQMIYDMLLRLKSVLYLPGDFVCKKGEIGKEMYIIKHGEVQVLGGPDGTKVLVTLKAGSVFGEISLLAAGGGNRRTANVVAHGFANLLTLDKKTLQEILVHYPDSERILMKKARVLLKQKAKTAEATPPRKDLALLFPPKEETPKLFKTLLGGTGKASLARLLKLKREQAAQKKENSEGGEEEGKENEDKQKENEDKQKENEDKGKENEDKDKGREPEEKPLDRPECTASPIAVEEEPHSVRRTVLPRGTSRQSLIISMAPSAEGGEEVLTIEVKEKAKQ

[2] = target: T2, rod CNG channel (CNGA1/CNGB1a) (Bos taurus, UniProt Q00194+Q28181); experiment: inside-out patch clamp, Xenopus oocytes, Hill fit; format: cell-based
T2 construct: heterotetramer 3 CNGA1 : 1 CNGB1a; subunits in pGEMHE, cRNA ratio 1:4, expressed in Xenopus laevis oocytes; inside-out patches
T2 sequence (Q00194 whole entry): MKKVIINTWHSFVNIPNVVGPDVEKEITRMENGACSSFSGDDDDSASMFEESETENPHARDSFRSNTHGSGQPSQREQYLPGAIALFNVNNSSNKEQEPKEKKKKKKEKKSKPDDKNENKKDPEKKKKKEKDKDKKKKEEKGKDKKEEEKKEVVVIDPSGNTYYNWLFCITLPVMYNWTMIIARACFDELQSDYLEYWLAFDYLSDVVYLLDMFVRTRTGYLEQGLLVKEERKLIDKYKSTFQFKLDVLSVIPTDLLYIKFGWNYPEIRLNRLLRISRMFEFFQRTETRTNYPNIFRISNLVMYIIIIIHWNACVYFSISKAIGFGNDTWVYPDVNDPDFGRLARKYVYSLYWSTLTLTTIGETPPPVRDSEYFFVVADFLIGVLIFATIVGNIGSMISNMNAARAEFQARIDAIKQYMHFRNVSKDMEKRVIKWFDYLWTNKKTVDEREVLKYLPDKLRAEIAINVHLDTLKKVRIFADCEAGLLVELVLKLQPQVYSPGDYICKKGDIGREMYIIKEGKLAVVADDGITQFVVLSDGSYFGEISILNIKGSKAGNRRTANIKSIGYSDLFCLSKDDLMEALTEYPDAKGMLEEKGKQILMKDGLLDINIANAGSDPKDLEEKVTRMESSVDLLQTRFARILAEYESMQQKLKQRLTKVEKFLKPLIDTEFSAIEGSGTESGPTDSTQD
T2 sequence (Q28181 whole entry): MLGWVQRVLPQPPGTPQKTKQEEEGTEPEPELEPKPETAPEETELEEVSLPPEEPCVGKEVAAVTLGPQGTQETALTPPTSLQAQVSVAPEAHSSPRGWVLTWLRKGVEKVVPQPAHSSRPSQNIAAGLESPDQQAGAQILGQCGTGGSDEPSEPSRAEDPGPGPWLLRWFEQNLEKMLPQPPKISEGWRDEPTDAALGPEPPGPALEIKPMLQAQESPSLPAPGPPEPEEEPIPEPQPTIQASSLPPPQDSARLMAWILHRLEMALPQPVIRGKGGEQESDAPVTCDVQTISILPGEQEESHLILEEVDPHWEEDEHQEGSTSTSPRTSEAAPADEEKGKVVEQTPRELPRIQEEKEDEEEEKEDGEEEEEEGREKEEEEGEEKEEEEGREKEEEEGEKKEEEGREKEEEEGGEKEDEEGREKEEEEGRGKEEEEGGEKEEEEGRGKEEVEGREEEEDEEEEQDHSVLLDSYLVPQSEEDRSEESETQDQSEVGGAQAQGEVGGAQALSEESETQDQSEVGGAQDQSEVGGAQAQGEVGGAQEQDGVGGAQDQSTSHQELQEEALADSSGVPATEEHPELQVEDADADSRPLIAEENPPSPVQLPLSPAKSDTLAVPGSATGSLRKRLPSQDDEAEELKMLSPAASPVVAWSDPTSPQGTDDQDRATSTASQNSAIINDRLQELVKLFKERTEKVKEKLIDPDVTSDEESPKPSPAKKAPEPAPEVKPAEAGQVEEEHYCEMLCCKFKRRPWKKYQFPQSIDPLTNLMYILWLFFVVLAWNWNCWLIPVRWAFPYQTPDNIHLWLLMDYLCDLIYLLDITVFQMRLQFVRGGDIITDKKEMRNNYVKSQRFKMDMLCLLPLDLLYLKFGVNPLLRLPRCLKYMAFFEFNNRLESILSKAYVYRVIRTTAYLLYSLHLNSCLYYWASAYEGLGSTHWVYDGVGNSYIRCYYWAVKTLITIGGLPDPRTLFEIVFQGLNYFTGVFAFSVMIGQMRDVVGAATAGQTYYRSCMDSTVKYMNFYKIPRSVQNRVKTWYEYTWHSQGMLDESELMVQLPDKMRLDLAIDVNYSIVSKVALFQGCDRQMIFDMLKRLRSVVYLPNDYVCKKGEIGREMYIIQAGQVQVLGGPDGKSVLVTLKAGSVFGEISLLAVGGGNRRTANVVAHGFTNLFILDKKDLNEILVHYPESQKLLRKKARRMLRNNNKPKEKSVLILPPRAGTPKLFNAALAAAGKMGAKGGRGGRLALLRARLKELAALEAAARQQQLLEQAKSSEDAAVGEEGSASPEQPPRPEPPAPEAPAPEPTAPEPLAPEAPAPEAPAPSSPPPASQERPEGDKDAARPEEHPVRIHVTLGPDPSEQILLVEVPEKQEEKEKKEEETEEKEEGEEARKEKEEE

[3] = target: T1, cone CNG channel (CNGA3/CNGB3); experiment: inside-out patch clamp, Xenopus oocytes, current relative to saturating cGMP; format: biochemical; settings: partial agonist; saturating analogue vs 1 mM cGMP, pH 7.4, room temperature
[4] = target: T2, rod CNG channel (CNGA1/CNGB1a); experiment: as above; format: biochemical; settings: partial agonist; up to 5 mM analogue vs 3 mM cGMP, pH 7.4, room temperature

Structure (SMILES): Nc1nc2c(ncn2[C@@H]2O[C@@H]3COP(=O)(O)O[C@H]3[C@H]2O)c(=O)[nH]1 [cGMP]
- pEC50 [1]: 4.73

Structure (SMILES): Nc1nc2c(nc(Br)n2[C@@H]2O[C@@H]3COP(=O)(O)O[C@H]3[C@H]2O)c(=O)[nH]1 [compound 1, 8-Br-cGMP]
- pEC50 [2]: 5.21
- pEC50 ([1]; channel activation (agonist), +100 mV, pH 7.4, room temperature): 5.98

Structure (SMILES): Nc1nc(=O)c2nc(Sc3ccc(Cl)cc3)n([C@@H]3O[C@@H]4COP(=O)(O)O[C@H]4[C@H]3O)c2[nH]1 [compound 2, 8-pCPT-cGMP]
- pEC50 [2]: 6.11
- pEC50 [1]: 7.05

Structure (SMILES): O=c1c2ncn([C@@H]3O[C@@H]4COP(=O)(O)O[C@H]4[C@H]3O)c2nc2[nH]c(-c3ccccc3)cn12 [compound 3, PET-cGMP]
- % activation relative to cGMP [3]: PET-cGMP, Rp-cGMPS, Sp-cGMPS, and Sp-8-pCPT-cGMPS, was only partially effective when activating cone CNG channels
- % activation relative to cGMP [4]: ~ 41.2%

Structure (SMILES): Nc1nc2c(ncn2[C@@H]2O[C@@H]3COP(O)(=S)O[C@H]3[C@H]2O)c(=O)[nH]1 (stereo partly shown) [compound 4, Rp-cGMPS]
- % activation relative to cGMP [3]: ~ 43.6%
- % activation relative to cGMP [4]: ~ 11%

Structure (SMILES): Nc1nc2c(ncn2[C@@H]2O[C@@H]3CO[P@](O)(=S)O[C@H]3[C@H]2O)c(=O)[nH]1 [compound 5, Sp-cGMPS]
- % activation relative to cGMP [4]: ~ 62.8%
- pEC50 [1]: 5.54

Structure (SMILES): Nc1nc2c(nc(Sc3ccc(Cl)cc3)n2[C@@H]2O[C@@H]3CO[P@](O)(=S)O[C@H]3[C@H]2O)c(=O)[nH]1 [compound 7, Sp-8-pCPT-cGMPS]
- pEC50 [2]: 4.37
- pEC50 [1]: 3.88
